According to PubChem BioAssay (NCI):
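Dose response: 5 concentrations. Exposure: 48 h. Format: 96-well plates. Endpoint: linear interpolation; highest concentration if not reached. The concentration for 50% growth inhibition is given as GI50. TGI: total growth inhibition.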

What was measured:
Assay in all cases: DTP human tumour cell line panel, 48 h
[1] = test system: A549 NSCLC
[2] = test system: CCRF-CEM leukemia
[3] = test system: COLO 205 colon
[4] = test system: HOP-62 NSCLC
[5] = test system: K-562 leukemia
[6] = test system: M19-MEL melanoma
[7] = test system: MOLT-4 leukemia
[8] = test system: RXF 393 renal
[9] = test system: U251 CNS
[10] = test system: LOX IMVI melanoma

For `C=CCC1C(=O)C(C(=O)OC)N2CCc3c([nH]c4ccccc34)C12` (configuration not stated), the TGI [1] was greater than 100 µM, the TGI [2] was greater than 100 µM and the TGI [3] was greater than 100 µM. It also gave a TGI [4] greater than 100 µM, a TGI [5] greater than 100 µM and a TGI [6] greater than 100 µM. For the same compound, the TGI [7] was greater than 100 µM, the TGI [8] was greater than 100 µM and the TGI [9] was greater than 100 µM.
For `Cc1cc(=O)oc2c(CN3CCCCC3)c(O)ccc12`, the TGI [1] was greater than 100 µM, the TGI [2] was greater than 100 µM and the TGI [3] was greater than 100 µM. For the same compound, the TGI [4] was greater than 100 µM, the TGI [5] was greater than 100 µM and the TGI [10] was greater than 100 µM. It also gave a TGI [7] greater than 100 µM, a TGI [8] greater than 100 µM and a TGI [9] greater than 100 µM.
With `CN1C(OCc2ccccc2)c2c(ccc3c2OCO3)C2C=Cc3cc4c(cc3C21)OCO4` (configuration not stated) the TGI [2] was 1.05 µM, the TGI [3] was 2.2 µM and the TGI [4] was 2.96 µM. The TGI [10] was 0.337 µM, the TGI [6] was 0.361 µM and the TGI [7] was 0.678 µM. For the same compound, the TGI [8] was 2.31 µM and the TGI [9] was 2.84 µM.
`COc1c(C2=NC(C(C)C)CO2)ccc2ccccc12` (configuration not stated) showed a TGI [1] greater than 100 µM, a TGI [2] greater than 100 µM and a TGI [3] greater than 100 µM. It also gave a TGI [4] greater than 100 µM, a TGI [5] greater than 100 µM and a TGI [10] greater than 100 µM. It also gave a TGI [6] greater than 100 µM, a TGI [7] of 50.3 µM and a TGI [8] of 86.8 µM.
`O=c1oc2cc(N=Cc3ccccc3Cl)ccc2c2ccccc12` showed a TGI [1] greater than 100 µM, a TGI [2] greater than 100 µM and a TGI [3] greater than 100 µM. The TGI [4] was greater than 100 µM, the TGI [5] was greater than 100 µM and the TGI [10] was greater than 100 µM. For the same compound, the TGI [7] was greater than 100 µM, the TGI [8] was greater than 100 µM and the TGI [9] was greater than 100 µM.
In the case of `O=S(=O)(Nc1cc(Br)c(O)c2ccccc12)c1ccc(F)cc1`, the GI50 [1] is reported as 8.3 µM, the TGI [1] is reported as 26.7 µM and the GI50 [2] is reported as 0.76 µM. It also gave a TGI [2] of 8.29 µM, a GI50 [3] of 10.7 µM and a TGI [3] of 29.5 µM. The GI50 [4] was 3.58 µM, the TGI [4] was 18.5 µM and the GI50 [5] was 3.19 µM. For the same compound, the TGI [5] was 8.28 µM, the GI50 [10] was 2.07 µM and the TGI [10] was 4.88 µM. The GI50 [7] was 2.31 µM, the TGI [7] was 5.33 µM and the GI50 [8] was 3.69 µM. The TGI [8] was 14.1 µM, the GI50 [9] was 2.96 µM and the TGI [9] was 7.77 µM.
Work on `COc1ccc(C[n+]2c3ccccc3n3c4ccc(N)cc4ccc32)c(OC)c1OC` yielded a GI50 [1] of 19.3 µM, a TGI [1] greater than 100 µM and a GI50 [2] of 4.28 µM. For the same compound, the TGI [2] was 45.7 µM, the GI50 [3] was 1.9 µM and the TGI [3] was 5.65 µM. For the same compound, the GI50 [4] was 7.4 µM, the TGI [4] was 33.1 µM and the GI50 [5] was 4.87 µM. It also gave a TGI [5] greater than 100 µM, a GI50 [10] of 10.7 µM and a TGI [10] of 36.3 µM. The GI50 [7] was 3.14 µM, the TGI [7] was 35.2 µM and the GI50 [8] was 6.3 µM. For the same compound, the TGI [8] was 21.9 µM, the GI50 [9] was 1.7 µM and the TGI [9] was 14.5 µM.
For `N#CC(C#N)=Cc1c(-c2ccccc2)[nH]c2ccccc12`, the GI50 [1] was 4.62 µM, the TGI [1] was greater than 100 µM and the GI50 [2] was 2.41 µM. For the same compound, the TGI [2] was 43.8 µM, the GI50 [3] was 1.76 µM and the TGI [3] was 15 µM. It also gave a GI50 [4] of 11.2 µM, a TGI [4] of 55.2 µM and a GI50 [5] of 0.478 µM. The TGI [5] was greater than 100 µM, the GI50 [10] was 3.27 µM and the TGI [10] was greater than 47.3 µM. The GI50 [7] was 13.3 µM, the TGI [7] was greater than 75.1 µM and the GI50 [8] was 3.33 µM. For the same compound, the TGI [8] was greater than 33.3 µM, the GI50 [9] was 1.18 µM and the TGI [9] was 28 µM.
With `O=C1c2ccccc2C(=O)C2C1C1C(=O)c3ccccc3C(=O)C21` (configuration not stated) the TGI [1] was greater than 100 µM, the TGI [2] was greater than 100 µM and the TGI [3] was greater than 100 µM. The TGI [4] was greater than 100 µM, the TGI [5] was greater than 100 µM and the TGI [10] was greater than 100 µM. For the same compound, the TGI [6] was greater than 100 µM, the TGI [8] was greater than 100 µM and the TGI [9] was greater than 100 µM.
